Measured values from patent US12156865B2, “Formulation for soft anticholinergic analogs” (Bodor Laboratories, Inc., priority 2016, dated 2024).

What was measured:
[1] = Hydrolysis and stability testing of aqueous BBI-4000 formulations (HPLC); details: aqueous formulations of Table II
Procedure: An HPLC method was developed at a commercial laboratory for assaying the soft anticholinergic analog, and related substances (including hydrolysis products):
• High performance liquid chromatography (HPLC) system Chromatography data system • XBridge Shield RP18, 4.6×150 mm, 3.5 μm HPLC column • Analytical balance capable of weighing to 0.00001 g • Ultrasonic bath • Volumetric flasks, 1, 5 mL • Syringe Filter: 25 mm, 0.45 μm, HPF Millex-HV, Millipore or suitable alternative
• BBI-4000 standard • Water, HPLC grade • Acetonitrile (can), Optima grade • Trifluroacetic acid (TFA), Fisher • Mobile Phase “A”: 0.1% TFA in Water • Mobile Phase “B”: 0.1% TFA in Acetonitrile • Auto Sampler Flush: 1:1 Water:Acetonitrile • Diluent: Acetonitrile
The standards were prepared in duplicate by weighing 2.0±0.1 mg of BBI-4000 into 1 mL volumetric flasks. Dissolved and diluted to volume with acetonitrile and mixed by inversion.
The liquid chromatographic system was set-up as follows: • HPLC Column: XBridge Shield RP18, 4.6×150 mm, 3.5 μm • Column Temp.: 25±1° C. • Sample Temp.: ambiant • Flow Rate: 1.5 mL/min • Injection Volume: 10 μL • UV Detection: 220 nm • Run Time: 20 minutes
The HPLC assay was conducted on formulations at differing pH values, and the results were reviewed for “Time-Zero” and at 7 days at 40° C.:

[2] = Toxicokinetics (PK analysis) in Gottingen Minipigs; type: in vivo
Procedure: (§2) All groups received 2 mL of gel formulation, once a day, for 14 consecutive days, applied to approximately 10% of their body surface area on their backs.
Blood samples for chemistry and hematology analysis were collected as well as PK samples.
(§3) The estimated BBI-4000 dose applied to the skin in this study was 40 mg/kg/day for Group 3 and 20 mg/kg/day for Group 2.

[3] = test system: subjects with axillary hyperhidrosis; assay: Study BBI-4000-CL-101: hyperhidrosis disease severity scale (HDSS); type: in vivo, human
Procedure: (§1) Efficacy was assessed by the change in gravimetrically measured sweat production and the change in hyperhidrosis disease severity scale (HDSS) from baseline to Day 15 (end of therapy).
For the HDSS, subjects rated the severity of their hyperhidrosis on a 4-point scale (1, 2, 3, or 4) based on the level of interference with their daily activities.

[4] = test system: sweat production in subjects with axillary hyperhidrosis; assay: Study BBI-4000-CL-101: gravimetrically measured sweat production; type: in vivo, human
Procedure: as §1
For the gravimetric assessment, sweat production was measured by placing filter paper (pre-weighed) on the axilla for 5 minutes while the subject was in a semi-reclining position at room temperature. The filter paper was covered with plastic during exposure to the axilla, and was then weighed following the 5-minute exposure period to calculate the amount of sweat produced.

[5] = Stability of approximately 2% BBI-4000 formulations in four solvent systems (HPLC); type: physicochemical; details: for Change from Baseline (40° C./75%), reduction: after 7 days at 40° C./75% humidity
Procedure: Various formulations of approximately 2% BBI-4000 were made and their stabilities assessed. The solvent systems were as follows:
(a) solvent content: 100% water;
(b) solvent content: 60% water/40% ethanol;
(c) solvent content: 30% water/70% ethanol;
(d) solvent content: 100% ethanol.
Each sample was assessed at baseline; after 7 days at 25° C./60% humidity; and after 7 days at 40° C./75% humidity. The percentage change from baseline for 40° C. after 7 days was calculated in each case. HPLC analysis was conducted as described in EXAMPLE 2 below.

[6] = test system: Gottingen Minipigs; assay: 14-day dermal and systemic toxicity study in Gottingen Minipigs; details: anhydrous composition, 14 days
Procedure: as §2
The study included daily observations of the site of application and scoring of erythema and edema (if present), daily general examinations including heart rate as well as pupil size assessment at days 1, 2, 3, 5, 7, 10 and 14. The frequent observations of heart rate and pupil size were intended to identify any potential systemic anticholinergic effect. Main organs were evaluated during necropsy and histopathology evaluation was completed for treated and untreated skin. Blood samples for chemistry and hematology analysis were collected as well as PK samples.
as §3

[7] = Solvent Content: 30% water, 70% Ethanol, Baseline
[8] = Solvent Content: 30% water, 70% Ethanol, Day 7 @ 25° C./60%
[9] = Solvent Content: 30% water, 70% Ethanol, Day 7 @ 40° C./75%
[10] = Solvent Content: 60% water, 40% Ethanol, Baseline
[11] = Solvent Content: 60% water, 40% Ethanol, Day 7 @ 25° C./60%
[12] = Solvent Content: 60% water, 40% Ethanol, Day 7 @ 40° C./75%
[13] = Solvent Content: 100% Ethanol, Baseline
[14] = Solvent Content: 100% Ethanol, Day 7 @ 25° C./60%
[15] = Solvent Content: 100% Ethanol, Day 7 @ 40° C./75%
[16] = Solvent Content: 100% Water, Baseline
[17] = Solvent Content: 100% Water, Day 7 @ 25° C./60%
[18] = Solvent Content: 100% Water, Day 7 @ 40° C./75%

CCOC(=O)C[N@+]1(C)CCC(OC(=O)[C@](O)(c2ccccc2)C2CCCC2)C1.[Br-] (stereo partly drawn) [BBI-4000, (2R,3′R) 3-(2-cyclopentyl-2-phenyl-2-hydroxyacetoxy)-1-(ethoxycarbonylmethyl)-1-methylpyrrolidinium bromide]
BBI-4000 content (assay number) ([1]; differing pH, Day 7 at 40° C. vs Time-Zero): decreased
Hydrolytic degradation products (two zwitterion stereoisomers, RRT 0.84 and RRT 0.80) ([1]; Day 7 at 40° C.): noticeably increased
Systemic exposure of BBI-4000 (PK analysis) ([2]; 10% and 20% gel (20 and 40 mg/kg/day), topical, 14 days): variable, dose related systemic exposure
Time at which the highest concentration was observed ([2]; after Day-14 dosing, minipig receiving 20% BBI-4000 concentration): 2 h
Improvement in HDSS assessments compared to vehicle ([3]; Cohort 2, baseline to Day 15): greater improvement
Proportion of subjects reporting a 2-point improvement in HDSS ([3]; Day 15, aggregate of 5% and 10% gel (8 of 12)): 67%
Reduction in gravimetrically measured sweat production compared to vehicle ([4]; Cohort 2, baseline to Day 15): greater reduction
Proportion of subjects with at least a 50% reduction in sweat production ([4]; Day 15, aggregate of 5% and 10% gel (9 of 12)): 75%
BBI-4000 Assay [5, 7]: 1.99%
BBI-4000 Main Hydrolysis Products (RRT-0.79-0.84) [5, 7]: 0%
BBI-4000 Assay [5, 8]: 1.95%
BBI-4000 Main Hydrolysis Products (RRT-0.79-0.84) [5, 8]: 0.84%
BBI-4000 Assay [5, 9]: 1.89%
BBI-4000 Main Hydrolysis Products (RRT-0.79-0.84) [5, 9]: 3.50%
Change from Baseline (40° C./75%), reduction ([5]; Solvent Content: 30% water, 70% Ethanol): 5%
BBI-4000 Assay [5, 10]: 1.99%
BBI-4000 Main Hydrolysis Products (RRT-0.79-0.84) [5, 10]: 0%
BBI-4000 Assay [5, 11]: 1.94%
BBI-4000 Main Hydrolysis Products (RRT-0.79-0.84) [5, 11]: 0.83%
BBI-4000 Assay [5, 12]: 1.89%
BBI-4000 Main Hydrolysis Products (RRT-0.79-0.84) [5, 12]: 3.40%
Change from Baseline (40° C./75%), reduction ([5]; Solvent Content: 60% water, 40% Ethanol): 5%
BBI-4000 Assay [5, 13]: 2.02%
BBI-4000 Main Hydrolysis Products (RRT-0.79-0.84) [5, 13]: 0%
BBI-4000 Assay [5, 14]: 2%
BBI-4000 Main Hydrolysis Products (RRT-0.79-0.84) [5, 14]: 0%
BBI-4000 Assay [5, 15]: 2.01%
BBI-4000 Main Hydrolysis Products (RRT-0.79-0.84) [5, 15]: 0%
Change from Baseline (40° C./75%), reduction ([5]; Solvent Content: 100% Ethanol): <1%
BBI-4000 Assay [5, 16]: 1.99%
BBI-4000 Main Hydrolysis Products (RRT-0.79-0.84) [5, 16]: 0%
BBI-4000 Assay [5, 17]: 1.91%
BBI-4000 Main Hydrolysis Products (RRT-0.79-0.84) [5, 17]: 1.90%
BBI-4000 Assay [5, 18]: 1.80%
BBI-4000 Main Hydrolysis Products (RRT-0.79-0.84) [5, 18]: 7.42%
Change from Baseline (40° C./75%), reduction ([5]; Solvent Content: 100% Water): 9.5%
Histopathology analysis of treated skin [6]: unremarkable and identical to non-treated and vehicle treated skin
